Results: ChEMBL document CHEMBL5154776, “Discovery of Potent and Orally Bioavailable Platelet-Derived Growth Factor Receptor (PDGFR) Inhibitors for the Treatment of Osteosarcoma” (J Med Chem, 2022)

Tests used:
[1] = target: T1, Platelet-derived growth factor receptor beta (Homo sapiens, UniProt P09619); test: Inhibition of PDGFRbeta (unknown origin) at 100 nM by caliper mobility shift assay relative to control
[2] = target: T1, Platelet-derived growth factor receptor beta; test: Inhibition of PDGFRbeta (unknown origin) by caliper mobility shift assay
[3] = Toxicity in BALB/c nude mouse xenograted with human MNNG/HOS cells assessed as kidney lesion at 30 mg/kg/day, po for 14 days by hematoxylin and eosin staining method; type: organism-based, HOS-TE85; settings: in vivo, 336 h, time 14 day
[4] = test system: CYP2C9; test: Inhibition of CYP2C9 in rat liver microsomes at 100 uM using diclofenac as substrate preincubated for 5 min followed by NADPH addition and measured after 40 mins by UHPLC-MS/MS analysis; type: ADME, Microsome; settings: probe diclofenac, time 45 min
[5] = test system: HOS-TE85; test: Antiproliferative activity against human MNNG/HOS cells assessed as reduction in cell viability incubated for 48 hrs by MTT assay; settings: HOS-TE85, 48 h
[6] = test system: SAOS-2; test: Antiproliferative activity against human SAOS-2 cells assessed as reduction in cell viability incubated for 48 hrs by MTT assay; settings: SAOS-2, 48 h
[7] = test system: CYP2C19; test: Inhibition of CYP2C19 in rat liver microsomes at 100 uM using voriconazole as substrate preincubated for 5 min followed by NADPH addition and measured after 40 mins by UHPLC-MS/MS analysis; type: ADME, Microsome; settings: probe voriconazole, time 45 min
[8] = target: Platelet-derived growth factor receptor alpha (Homo sapiens, UniProt P16234); test: Inhibition of PDGFRalpha (unknown origin) by caliper mobility shift assay
[9] = test system: MG-63; test: Antiproliferative activity against human MG-63 cells assessed as reduction in cell viability incubated for 48 hrs by MTT assay; settings: MG-63, 48 h
[10] = test system: U2OS; test: Antiproliferative activity against human U2OS cells assessed as reduction in cell viability incubated for 48 hrs by MTT assay

T1 sequence (P09619 whole entry): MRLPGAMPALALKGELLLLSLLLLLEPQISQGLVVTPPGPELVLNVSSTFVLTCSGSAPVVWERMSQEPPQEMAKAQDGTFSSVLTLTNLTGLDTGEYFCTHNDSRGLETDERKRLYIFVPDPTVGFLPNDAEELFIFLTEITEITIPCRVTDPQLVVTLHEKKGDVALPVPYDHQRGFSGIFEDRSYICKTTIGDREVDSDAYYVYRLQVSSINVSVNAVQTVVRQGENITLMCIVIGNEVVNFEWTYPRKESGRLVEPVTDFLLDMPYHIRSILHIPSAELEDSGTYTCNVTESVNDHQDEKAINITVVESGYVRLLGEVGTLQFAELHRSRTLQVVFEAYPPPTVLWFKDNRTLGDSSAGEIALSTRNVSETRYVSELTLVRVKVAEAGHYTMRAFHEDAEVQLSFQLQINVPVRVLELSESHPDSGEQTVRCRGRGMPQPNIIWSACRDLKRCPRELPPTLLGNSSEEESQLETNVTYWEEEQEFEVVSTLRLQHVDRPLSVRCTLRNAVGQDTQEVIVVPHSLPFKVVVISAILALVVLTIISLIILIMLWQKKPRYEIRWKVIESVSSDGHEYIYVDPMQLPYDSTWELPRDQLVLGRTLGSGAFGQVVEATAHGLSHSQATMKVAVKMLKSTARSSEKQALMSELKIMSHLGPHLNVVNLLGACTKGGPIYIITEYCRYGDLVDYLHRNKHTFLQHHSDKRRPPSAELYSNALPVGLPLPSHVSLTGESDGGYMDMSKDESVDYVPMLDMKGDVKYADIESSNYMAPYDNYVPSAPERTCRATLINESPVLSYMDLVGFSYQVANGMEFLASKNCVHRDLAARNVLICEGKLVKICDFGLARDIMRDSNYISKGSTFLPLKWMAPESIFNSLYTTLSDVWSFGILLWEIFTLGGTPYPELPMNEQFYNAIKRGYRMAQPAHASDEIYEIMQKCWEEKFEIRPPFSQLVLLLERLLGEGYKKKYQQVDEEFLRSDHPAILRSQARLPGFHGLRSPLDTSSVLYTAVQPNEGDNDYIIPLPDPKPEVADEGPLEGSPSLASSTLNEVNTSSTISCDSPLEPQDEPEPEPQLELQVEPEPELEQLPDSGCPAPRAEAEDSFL
Chain of Platelet-derived growth factor receptor alpha (P16234 whole entry): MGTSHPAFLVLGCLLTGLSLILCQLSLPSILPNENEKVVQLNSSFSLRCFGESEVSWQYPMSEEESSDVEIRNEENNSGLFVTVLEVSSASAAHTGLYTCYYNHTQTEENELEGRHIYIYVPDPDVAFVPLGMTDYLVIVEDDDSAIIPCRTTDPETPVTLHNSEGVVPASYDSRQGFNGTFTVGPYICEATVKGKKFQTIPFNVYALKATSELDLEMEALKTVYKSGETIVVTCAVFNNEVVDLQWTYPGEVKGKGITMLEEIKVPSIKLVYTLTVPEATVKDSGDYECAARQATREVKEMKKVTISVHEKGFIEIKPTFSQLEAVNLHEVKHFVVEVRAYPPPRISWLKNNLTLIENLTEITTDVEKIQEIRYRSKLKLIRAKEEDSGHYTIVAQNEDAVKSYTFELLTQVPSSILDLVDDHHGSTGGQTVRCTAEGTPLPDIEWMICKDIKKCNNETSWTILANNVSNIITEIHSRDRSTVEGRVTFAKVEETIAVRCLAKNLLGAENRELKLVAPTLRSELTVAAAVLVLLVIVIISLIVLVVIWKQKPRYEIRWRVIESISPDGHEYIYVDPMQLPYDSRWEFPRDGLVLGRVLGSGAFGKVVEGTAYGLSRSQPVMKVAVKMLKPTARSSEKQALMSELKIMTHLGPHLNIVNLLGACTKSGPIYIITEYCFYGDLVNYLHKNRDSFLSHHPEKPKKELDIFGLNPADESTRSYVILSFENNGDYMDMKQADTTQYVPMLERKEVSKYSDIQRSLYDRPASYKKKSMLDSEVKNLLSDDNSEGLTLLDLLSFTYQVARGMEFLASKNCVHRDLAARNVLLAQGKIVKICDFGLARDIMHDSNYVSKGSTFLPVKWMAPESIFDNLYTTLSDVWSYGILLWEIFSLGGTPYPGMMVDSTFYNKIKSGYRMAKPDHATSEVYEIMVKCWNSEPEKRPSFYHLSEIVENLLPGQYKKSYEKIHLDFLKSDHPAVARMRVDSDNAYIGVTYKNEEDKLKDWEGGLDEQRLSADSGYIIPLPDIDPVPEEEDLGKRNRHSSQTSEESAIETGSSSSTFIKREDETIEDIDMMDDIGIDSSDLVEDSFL

| Structure (SMILES) | inhibition [1] | IC50 [2] | also measured |
| --- | --- | --- | --- |
| Cc1cnc(Nc2ccc(N3CCOCC3)cc2)nc1Nc1ccc2cn[nH]c2c1 |  | 0.0069 µM |  |
| Cc1cnc(Nc2ccc(N3CCNCC3)cc2)nc1Nc1ccc2cn[nH]c2c1 |  | 0.11 µM |  |
| Cc1cnc(Nc2ccc(N3CCN(C)CC3)cc2)nc1Nc1ccc2c(c1)CCCC2 | 90.4% |  |  |
| Cc1cnc(Nc2ccc(N3CCN(C)CC3)cc2)nc1Nc1ccc2c(ccn2C)c1 | 79.2% |  |  |
| Cc1ccc(NC(=O)c2ccc(CN3CCN(C)CC3)cc2)cc1Nc1nccc(-c2cccnc2)n1 [IMATINIB] |  |  | Activity [3]: Toxic |
| Cc1cnc(Nc2ccc(N3CCC(F)(F)CC3)cc2)nc1Nc1ccc2cn[nH]c2c1 |  | 0.0909 µM |  |
| Cc1cnc(Nc2ccc(N3CCN(C)CC3)cc2)nc1Nc1ccc2[nH]ncc2c1 | 84.1% |  |  |
| Cc1cnc(Nc2ccc(N3CCN(C)CC3)cc2)nc1Nc1ccc2nn(CCNC(=O)OC(C)(C)C)cc2c1 | 71.1% |  |  |
| COc1cc(N2CCN(C)CC2)ccc1Nc1ncc(C)c(Nc2ccc3cn[nH]c3c2)n1 |  | 0.0441 µM |  |
| Cc1cnc(Nc2ccc(N3CCC(N4CCN(C)CC4)CC3)cc2)nc1Nc1ccc2cn[nH]c2c1 |  | 0.0167 µM |  |
| CCN1CCN(c2ccc(Nc3ncc(C)c(Nc4ccc5cn[nH]c5c4)n3)cc2OC)CC1 |  | 0.0009 µM | inhibition at 40 min, 100 µM [4]: 45.6%; IC50 [5]: 1.03 µM; IC50 [6]: 0.37 µM; inhibition at 40 min, 100 µM [7]: 45.6%; IC50 [8]: 0.0024 µM; IC50 [9]: 0.44 µM; IC50 [10]: 0.42 µM |

Further lines, with some results ahead:

| inhibition [1] | IC50 [2] | Structure (SMILES) | also measured |
| --- | --- | --- | --- |
| 3.5% |  | CN1CCN(c2ccc(Nc3nc(Nc4ccc5cn[nH]c5c4)cc(C(F)(F)F)n3)cc2)CC1 |  |
| 7.2% |  | Cc1cc(Nc2ccc3cn[nH]c3c2)nc(Nc2ccc(N3CCN(C)CC3)cc2)n1 |  |
| 21.2% |  | CN1CCN(c2ccc(Nc3nc(Nc4ccc5cn[nH]c5c4)c4sccc4n3)cc2)CC1 |  |
| 99.6% |  | Cc1cnc(Nc2ccc(N3CCN(C)CC3)cc2)nc1Nc1ccc2cn[nH]c2c1 |  |
| 81% |  | CN1CCN(c2ccc(Nc3ncc(C(F)(F)F)c(Nc4ccc5cn[nH]c5c4)n3)cc2)CC1 |  |
| 94.4% |  | CN1CCN(c2ccc(Nc3ncc(F)c(Nc4ccc5cn[nH]c5c4)n3)cc2)CC1 |  |
